Measured values from EPA's ToxRefDB 2.

Tests used:
mouse [1] = conditions: Subchronic oral toxicity in rodents, cd1, Feed, dose end: 6 week, group: systemic
rat [2] = conditions: Subchronic oral toxicity in rodents, sprague dawley, Feed, dose end: 13 week, group: systemic
rabbit [3] = conditions: Prenatal developmental toxicity study, dutch, Oral, Gavage/Intubation, dose end: 18 GD
rat [4] = conditions: Carcinogenicity; Osborne-Mendel; Oral; Feed; dose end: 80 week; group: systemic; systemic / in life observation / clinical signs / [other] + systemic / in life observation / clinical signs / alopecia + systemic / in life …
mouse [5] = conditions: Prenatal developmental toxicity study, cd1, Oral, Gavage/Intubation, dose end: 17 GD
mouse [6] = conditions: Carcinogenicity; b6c3f1; Oral; Feed; dose end: 80 week; group: systemic; systemic / in life observation / clinical signs / aggressive behavior + systemic / in life observation / clinical signs / alopecia + …
hamster = conditions: Developmental neurotoxicity study; golden syrian; Oral; Gavage/Intubation; dose end: 125 PND; group: cannot be grouped; systemic / in life observation / mortality / mortality
mouse [7] = conditions: Multigenerational reproductive toxicity study, other, Oral, Feed, dose end: 1 generation
rat [8] = conditions: Prenatal developmental toxicity study; sprague dawley; Oral; Gavage/Intubation; dose end: 20 GD; group: maternal; systemic / in life observation / body weight / body weight gain
rat [9] = conditions: Sub-acute repeat dose toxicity, fischer, Oral, Gavage/Intubation, dose end: 16 day, group: systemic
mouse [10] = conditions: Sub-acute repeat dose toxicity, b6c3f1, Oral, Gavage/Intubation, dose end: 16 day, group: systemic
mouse [11] = conditions: Carcinogenicity; b6c3f1; Oral; Gavage; dose end: 103 week; group: systemic; systemic / organ weight / kidney / absolute + systemic / pathology microscopic / kidney / nephropathy + systemic / pathology microscopic / …
rat [12] = conditions: Subchronic oral toxicity in rodents, fischer, Gavage/Intubation, dose end: 13 week, group: systemic
rat [13] = conditions: Subchronic oral toxicity in rodents, fischer, Gavage/Intubation, dose end: 13 week, group: systemic; remark: listed apart in the source
rabbit [14] = conditions: Sub-acute dermal toxicity, new zealand white, Topical, dose end: 21 day, group: systemic, systemic / pathology gross / skin / scabbing + systemic / pathology microscopic / skin / acanthosis + systemic / pathology microscopic / …
rat [15] = conditions: Prenatal developmental toxicity study, wistar, Oral, Gavage/Intubation, dose end: 15 GD
rat [16] = conditions: Combined chronic toxicity/carcinogenicity, fischer, Oral, Gavage/Intubation, dose end: 103 week, group: systemic
rat [17] = conditions: Prenatal developmental toxicity study, sprague dawley, Oral, Gavage/Intubation, dose end: 15 GD
rat [18] = conditions: Prenatal developmental toxicity study, sprague dawley, Oral, Gavage/Intubation, dose end: 19 GD
rat [19] = conditions: Subchronic oral toxicity in rodents, sprague dawley, Gavage/Intubation, dose end: 13 week, group: systemic
rat [20] = conditions: Prenatal developmental toxicity study, sprague dawley, Oral, Gavage/Intubation, dose end: 19 GD; remark: listed apart in the source
[21] = systemic / in life observation / body weight / body weight gain + systemic / pathology microscopic / stomach / [other] + systemic / …
[22] = systemic / in life observation / clinical signs / piloerection + systemic / organ weight / heart / absolute + systemic / pathology gross / …
[23] = systemic / hematology / leukocyte (wbc) count differential / leukocyte (wbc)
[24] = group: developmental, developmental / developmental malformation / bone / unossified + systemic / in life observation / body weight / fetal weight
[25] = group: maternal, systemic / in life observation / body weight / body weight gain + systemic / in life observation / mortality / mortality
[26] = group: maternal, systemic / in life observation / body weight / body weight gain + systemic / in life observation / mortality / mortality + reproductive / …
[27] = group: developmental, developmental / developmental malformation / bone / absent + developmental / developmental malformation / bone / ossification sites + …
[28] = group: maternal, systemic / in life observation / body weight / body weight gain + systemic / in life observation / mortality / mortality + systemic / organ …
[29] = group: maternal, systemic / organ weight / liver / relative to body weight
[30] = group: parental, systemic / in life observation / mortality / mortality
[31] = group: reproductive, reproductive / reproductive performance / mating / mating + reproductive / offspring survival early / litter size / litter size
[32] = systemic / organ weight / kidney / absolute + systemic / organ weight / kidney / relative to body weight + systemic / pathology microscopic…
[33] = systemic / pathology gross / intestine large / dilatation
[34] = systemic / in life observation / clinical signs / abnormal posture + systemic / in life observation / clinical signs / fur (altered …
[35] = systemic / clinical chemistry / creatinine / creatinine + systemic / clinical chemistry / urea nitrogen / urea nitrogen + systemic / organ …
[36] = systemic / clinical chemistry / creatinine / creatinine + systemic / clinical chemistry / urea nitrogen / urea nitrogen + systemic / …
[37] = systemic / in life observation / clinical signs / alopecia + systemic / in life observation / clinical signs / urogenital staining
[38] = group: developmental, systemic / in life observation / body weight / fetal weight
[39] = group: maternal, systemic / in life observation / body weight / body weight gain
[40] = group: maternal, systemic / in life observation / body weight / body weight gain + systemic / in life observation / clinical signs / mucoid stools + systemic…
[41] = systemic / pathology microscopic / kidney / nephropathy + systemic / urinalysis / coporphoryin / coporphoryin
[42] = group: developmental, developmental / developmental malformation / general / runts + systemic / in life observation / body weight / fetal weight
[43] = group: maternal, systemic / in life observation / body weight / body weight + systemic / in life observation / body weight / body weight gain + systemic / in…
[44] = group: maternal, reproductive / reproductive performance / estrous cycle / corpora lutea
[45] = systemic / pathology microscopic / stomach / edema + systemic / pathology microscopic / stomach / hyperkeratosis + systemic / pathology …
[46] = group: maternal, systemic / in life observation / clinical signs / salivation + systemic / in life observation / body weight / body weight + systemic / in …

Clc1nc(Cl)nc(Nc2ccccc2Cl)n1 [Anilazine] gave an LOAEL (mouse [1]; [21]) of 1380 mg/kg/day, an NOAEL (mouse [1]; [21]) of 339 mg/kg/day and an LEL (mouse [1]; [22]) of 334 mg/kg/day. For the same compound, the NEL (mouse [1]; [22]) was less than 334 mg/kg/day, the LOAEL (rat [2]; [23]) was 45.9 mg/kg/day and the NOAEL (rat [2]; [23]) was less than 45.9 mg/kg/day. The NEL (rat [2]; systemic / organ weight / liver / relative to body weight + systemic / organ weight / lung / relative to body weight + systemic / organ …) was 600 mg/kg/day, the LEL (rabbit [3]; [24]) was 75 mg/kg/day and the LOAEL (rabbit [3]; [24]) was 75 mg/kg/day. For the same compound, the NEL (rabbit [3]; [24]) was 40 mg/kg/day, the NOAEL (rabbit [3]; [24]) was 40 mg/kg/day and the LEL (rabbit [3]; [25]) was 40 mg/kg/day. The LOAEL (rabbit [3]; [25]) was 40 mg/kg/day, the NEL (rabbit [3]; [26]) was 15 mg/kg/day and the NOAEL (rabbit [3]; [26]) was 15 mg/kg/day.

ClC1=C(Cl)[C@]2(Cl)[C@@H]3[C@H]4C[C@H]([C@@H]5O[C@H]45)[C@@H]3[C@@]1(Cl)C2(Cl)Cl [Endrin] was tested, and the LEL (rat [4]) was 0.125 mg/kg/day, the LOAEL (rat [4]) was greater than 0.25 mg/kg/day and the NEL (rat [4]) was less than 0.125 mg/kg/day. It also gave an NOAEL (rat [4]) of no less than 0.25 mg/kg/day, an LEL (mouse [5]; [27]) of 1 mg/kg/day and an LOAEL (mouse [5]; [27]) greater than 2 mg/kg/day. For the same compound, the NEL (mouse [5]; [27]) was 0.5 mg/kg/day, the NOAEL (mouse [5]; [27]) was no less than 2 mg/kg/day and the LOAEL (mouse [5]; [28]) was greater than 2 mg/kg/day. The NOAEL (mouse [5]; [28]) was no less than 2 mg/kg/day, the LEL (mouse [5]; [29]) was 0.5 mg/kg/day and the NEL (mouse [5]; [29]) was less than 0.5 mg/kg/day. For the same compound, the LEL (mouse [6]) was 0.24 mg/kg/day, the LOAEL (mouse [6]) was greater than 0.48 mg/kg/day and the NEL (mouse [6]) was less than 0.24 mg/kg/day. For the same compound, the NOAEL (mouse [6]) was no less than 0.48 mg/kg/day, the LEL (hamster) was 1.5 mg/kg/day and the LOAEL (hamster) was greater than 1.5 mg/kg/day. The NOAEL (hamster) was no less than 1.5 mg/kg/day, the LEL (mouse [7]; [30]) was 0.75 mg/kg/day and the LOAEL (mouse [7]; [30]) was greater than 0.75 mg/kg/day. It also gave an NEL (mouse [7]; [30]) of less than 0.75 mg/kg/day, an NOAEL (mouse [7]; [30]) of no less than 0.75 mg/kg/day and an LEL (mouse [7]; [31]) of 0.75 mg/kg/day. For the same compound, the LOAEL (mouse [7]; [31]) was greater than 0.75 mg/kg/day, the NEL (mouse [7]; [31]) was less than 0.75 mg/kg/day and the NOAEL (mouse [7]; [31]) was no less than 0.75 mg/kg/day. The LEL (rat [8]) was 0.3 mg/kg/day, the LOAEL (rat [8]) was greater than 0.45 mg/kg/day and the NEL (rat [8]) was 0.15 mg/kg/day. It also gave an NOAEL (rat [8]) of no less than 0.45 mg/kg/day.

With Oc1ccc(Cl)cc1Cc1ccccc1 [Clorophene] the LOAEL (rat [9]; [32]) was 1000 mg/kg/day, the NOAEL (rat [9]; [32]) was 500 mg/kg/day and the LEL (rat [9]; [33]) was 62.5 mg/kg/day. For the same compound, the NEL (rat [9]; [33]) was less than 62.5 mg/kg/day, the LOAEL (mouse [10]; [34]) was greater than 1000 mg/kg/day and the NEL (mouse [10]; [34]) was 62.5 mg/kg/day. The NOAEL (mouse [10]; [34]) was no less than 1000 mg/kg/day, the LEL (mouse [10]; [33]) was 125 mg/kg/day and the LEL (mouse [11]) was 120 mg/kg/day. The LOAEL (mouse [11]) was 120 mg/kg/day, the NEL (mouse [11]) was less than 120 mg/kg/day and the NOAEL (mouse [11]) was less than 120 mg/kg/day. It also gave an LOAEL (rat [12]; [35]) of 240 mg/kg/day, an NOAEL (rat [12]; [35]) of 120 mg/kg/day and an LEL (rat [12]; [36]) of 30 mg/kg/day. The NEL (rat [12]; [36]) was less than 30 mg/kg/day, the LEL (rat [13]; [37]) was 30 mg/kg/day and the NEL (rat [13]; [37]) was less than 30 mg/kg/day. For the same compound, the LOAEL (rat [13]; [32]) was 480 mg/kg/day, the NOAEL (rat [13]; [32]) was 240 mg/kg/day and the LEL (rabbit [14]) was 5 mg/kg/day. The LOAEL (rabbit [14]) was 5 mg/kg/day, the NEL (rabbit [14]) was 1 mg/kg/day and the NOAEL (rabbit [14]) was 1 mg/kg/day. For the same compound, the LEL (rat [15]; [38]) was 375 mg/kg/day, the LOAEL (rat [15]; [38]) was 375 mg/kg/day and the NEL (rat [15]; [38]) was 75 mg/kg/day. It also gave an NOAEL (rat [15]; [38]) of 75 mg/kg/day, an LEL (rat [15]; [39]) of 75 mg/kg/day and an LOAEL (rat [15]; [39]) of 75 mg/kg/day. The NEL (rat [15]; [40]) was 15 mg/kg/day, the NOAEL (rat [15]; [40]) was 15 mg/kg/day and the NEL (rat [16]; systemic / in life observation / clinical signs / urogenital staining + systemic / organ weight / heart / absolute + systemic / organ weight…) was 240 mg/kg/day. For the same compound, the LOAEL (rat [16]; [41]) was 30 mg/kg/day, the NOAEL (rat [16]; [41]) was less than 30 mg/kg/day and the LEL (rat [17]; [42]) was 1000 mg/kg/day. For the same compound, the LOAEL (rat [17]; [42]) was greater than 1000 mg/kg/day, the NEL (rat [17]; [42]) was 300 mg/kg/day and the NOAEL (rat [17]; [42]) was no less than 1000 mg/kg/day. The LOAEL (rat [17]; [43]) was greater than 1000 mg/kg/day, the NEL (rat [17]; [43]) was 100 mg/kg/day and the NOAEL (rat [17]; [43]) was no less than 1000 mg/kg/day. For the same compound, the LEL (rat [17]; group: maternal, systemic / in life observation / body weight / body weight + systemic / in life observation / water consumption / water consumption) was 300 mg/kg/day.

For O=C(CBr)OCC=CCOC(=O)CBr [1,4-Bis(bromoacetoxy)-2-butene], the LEL (rat [18]; [38]) was 50 mg/kg/day, the LOAEL (rat [18]; [38]) was 50 mg/kg/day and the NEL (rat [18]; [38]) was 25 mg/kg/day. It also gave an NOAEL (rat [18]; [38]) of 25 mg/kg/day, an LEL (rat [18]; [44]) of 25 mg/kg/day and an NEL (rat [18]; [44]) of less than 25 mg/kg/day. It also gave an LOAEL (rat [18]; [43]) of 50 mg/kg/day, an NOAEL (rat [18]; [43]) of 25 mg/kg/day and an NEL (rat [19]; systemic / clinical chemistry / calcium / calcium + systemic / clinical chemistry / glucose / glucose + systemic / clinical chemistry / urea…) of 39.1 mg/kg/day. For the same compound, the LOAEL (rat [19]; [45]) was 4.5 mg/kg/day, the NOAEL (rat [19]; [45]) was less than 4.5 mg/kg/day and the LEL (rat [20]; [38]) was 35 mg/kg/day. For the same compound, the LOAEL (rat [20]; [38]) was 35 mg/kg/day, the NEL (rat [20]; [38]) was 20 mg/kg/day and the NOAEL (rat [20]; [38]) was 20 mg/kg/day. For the same compound, the LOAEL (rat [20]; group: maternal, systemic / in life observation / clinical signs / salivation) was 20 mg/kg/day, the NEL (rat [20]; [46]) was 5 mg/kg/day and the NOAEL (rat [20]; [46]) was 5 mg/kg/day. It also gave an LEL (rat [20]; group: maternal, systemic / in life observation / clinical signs / salivation + systemic / in life observation / clinical signs / fur (altered appearance) + …) of 20 mg/kg/day.
